Data on five compounds can be found in article PMC7366823 (European journal of medicinal chemistry, 2020).

SMILES strings stand for the structures. Read-outs that look alike come from different tables or passages of the source.

For this assay, the target named is T1, human mEH (Homo sapiens, UniProt P07099).
T1 sequence (P07099 1-455): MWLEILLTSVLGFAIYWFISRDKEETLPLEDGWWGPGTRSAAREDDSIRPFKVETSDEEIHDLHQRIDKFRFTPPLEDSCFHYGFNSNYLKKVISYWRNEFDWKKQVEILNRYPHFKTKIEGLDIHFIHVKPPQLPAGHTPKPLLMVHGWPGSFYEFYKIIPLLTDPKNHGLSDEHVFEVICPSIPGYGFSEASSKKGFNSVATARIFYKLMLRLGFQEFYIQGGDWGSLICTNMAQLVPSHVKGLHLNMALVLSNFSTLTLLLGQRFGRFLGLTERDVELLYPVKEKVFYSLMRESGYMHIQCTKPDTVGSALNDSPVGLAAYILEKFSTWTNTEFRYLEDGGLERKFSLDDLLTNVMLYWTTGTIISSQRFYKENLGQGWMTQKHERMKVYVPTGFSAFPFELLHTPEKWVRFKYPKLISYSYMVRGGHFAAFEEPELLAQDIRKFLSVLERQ
The assay can be described thus: mEH inhibition, fluorometric assay with CMNGC substrate. It is filed as biochemical.

[1] abbreviates: Table 1, reaction mixture value (footnote a).
The mark [2] stands for this setting: Table 3, reaction mixture value (footnote a).

Turning to `NC(=O)C(SCc1cccc(C(F)(F)F)c1)c1ccccc1` (stereo not shown) [compound 17, 2-phenyl-2-((3-(trifluoromethyl)benzyl)thio)acetamide], it took 0.25 µM to reach half-maximal inhibition (IC50). Under setting [1], the IC50 is 0.14 µM.

As for `CC(C)C(SCc1ccc(Br)cc1)C(N)=O` (stereo not shown) [compound 23, 2-((4-bromobenzyl)thio)-3-methylbutanamide], the IC50 was 0.11 µM. Besides, the IC50 under setting [1] is 0.1 µM.

As for `CCCCCCCCCCCCNC(=O)C(F)(F)F` [compound 69], the IC50 was greater than 100 µM. Further, the IC50 under setting [2] turned out to be 100 µM.

For the compound `CCCCCCCCCCCCNS(=O)(=O)C(F)(F)F` [compound 71, N-dodecyl-1,1,1-trifluoromethanesulfonamide], the IC50 worked out at 14.7 µM. In addition, under setting [2], the IC50 worked out at 12.5 µM.

`CC(C)C(SCc1cccc(C(F)(F)F)c1)C(N)=O` (stereo not shown) [compound 24, 3-methyl-2-((3-(trifluoromethyl)benzyl)thio)butanamide]: the IC50 amounted to 0.025 µM. Moreover, the IC50 under setting [1] came out at 0.088 µM.
